Patent publication US20230181536A1, “ANTICANCER COMBINATION THERAPY WITH N-(1-ACRYLOYL-AZETIDIN-3-YL)-2-((1H-INDAZOL-3-YL)AMINO)METHYL)-1H-IMIDAZOLE-5-CARBOXAMIDE INHIBITOR OF KRAS-G12C” (TAIHO PHARMACEUTICAL CO., LTD., priority 2020, published 2023)

Target: T1, KRAS G12C (Homo sapiens, UniProt P01116, G12C)
T1 construct: KRAS G12C (amino acid region: 1-169)
Experiment: Inhibitory activity on the KRAS G12C nucleotide (GDP-GTP) exchange reaction
Format: biochemical
Details: Bodipy FL GDP-bound KRAS G12C 25 nM; preincubation at 25° C. for 4 hours; SOS1 100 nM, GppNHp 1 μM, reaction for 30 minutes
Protocol: Test Example 2: Evaluation of Inhibitory Activity of Compounds on the KRAS G12C Nucleotide (GDP-GTP) Exchange Reaction
The inhibitory activity of compounds on the exchange reaction of GDP into GppNHp in Bodipy (trademark) FL-bound KRAS G12C was examined by fluorescence measurement using human recombinant KRAS G12C and SOS1 proteins.
For the preparation of KRAS G12C to which Bodipy FL GDP was bound, first, 50 µM KRAS G12C (amino acid region: 1-169) and 1 mM Bodipy FL GDP (Invitrogen, G22360) were incubated for 1 hour in a buffer (20 mM Tris-HCl (pH 7.5), 50 mM NaCl, 1 mM DTT) in ice in the presence of 2.5 mM EDTA. Thereafter, MgCl2 with a final concentration of 10 mM was added, and the mixture was incubated at room temperature for 30 minutes. The protein was allowed to pass through a NAP-5 column to remove free nucleotides and was used for compound evaluation.
For the measurement of the inhibitory activity of compounds on nucleotide exchange reaction, first, the compound of the disclosure was diluted stepwise with dimethyl sulfoxide (DMSO). Subsequently, a solution of the gradually diluted compound of the disclosure in DMSO (the final concentration of DMSO: 5%) and KRAS G12C (25 nM) bound to Bodipy FL GDP were added to a reaction buffer (20 mM Tris-HCl (pH 7.5), 100 mM NaCl, 1 mM MgCl2, 2 mM DTT, 0.1% Tween20), followed by preincubation at 25° C. for 4 hours. Thereafter, Son of Sevenless Homolog 1 (SOS1, amino acid region: 564-1049) and GppNHp (GMPPNP, Jena Bioscience GmbH, NU-401-50) were added such that their final concentration was 100 nM and 1 μM respectively, followed by reaction for 30 minutes. The change in fluorescence intensity of Bodipy FL (excitation wavelength: 485 nm, fluorescence wavelength: 520 nm) immediately after the start of reaction and after 30 minutes from the start of reaction was standardized. The signal value for only DMSO was determined to be 0% inhibition, and the signal value for no addition of GppNHp was determined to be 100% inhibition. The compound concentration at which 50% inhibition is achieved was determined to be the IC50 (nM) and was calculated.

T1 sequence (P01116 1-169 isoform P01116-2 G12C): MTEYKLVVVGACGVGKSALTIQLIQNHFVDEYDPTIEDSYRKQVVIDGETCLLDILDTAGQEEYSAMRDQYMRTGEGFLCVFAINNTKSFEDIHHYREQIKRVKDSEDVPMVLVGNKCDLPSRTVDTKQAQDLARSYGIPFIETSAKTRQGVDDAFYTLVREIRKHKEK

Question: C=CC(=O)N1C[C@@H](NC(=O)c2c(C)nc(CNc3n[nH]c4cc(Cl)c(C(C)(C)C)cc34)n2C)[C@@H]1C (relative stereo) [Example 59, N-(trans-1-acryloyl-2-methylazetidin-3-yl)-2-(((5-(tert-butyl)-6-chloro-1H-indazol-3-yl)amino)methyl)-1,4-dimethyl-1H-imidazole-5-carboxamide] was tested. Which IC50 did it give?
Answer: 85 nM

Question: How did the IC50 turn out when C=CC(=O)N1CC(NC(=O)c2cnc(CNc3n[nH]c4cc(Cl)c(C(C)(C)C)cc34)n2C)C1 [Example 1, N-(1-acryloylazetidin-3-yl)-2-(((5-(tert-butyl)-6-chloro-1H-indazol-3-yl)amino)methyl)-1-methyl-1H-imidazole-5-carboxamide] was run?
Answer: 16 nM

Question: C=CC(=O)N1CC(NC(=O)c2sc(CNc3n[nH]c4cc(Cl)c(C(C)(C)C)cc34)nc2C)C1 [Example 2, N-(1-acryloylazetidin-3-yl)-2-(((5-(tert-butyl)-6-chloro-1H-indazol-3-yl)amino)methyl)-4-methylthiazole-5-carboxamide] was tested. Which IC50 did it give?
Answer: 365 nM

Question: C=CC(=O)N1CC(NC(=O)c2c(C)nc(CNc3n[nH]c4cc(Cl)c(C(C)(C)C)cc34)n2C)C1 [Example 3, N-(1-acryloylazetidin-3-yl)-2-(((5-(tert-butyl)-6-chloro-1H-indazol-3-yl)amino)methyl)-1,4-dimethyl-1H-imidazole-5-carboxamide] was tested. Which IC50 did it give?
Answer: 9 nM

Question: How did the IC50 turn out when C=CC(=O)N1CC(NC(=O)c2cnc(C(C)Nc3n[nH]c4cc(Cl)c(C(C)(C)C)cc34)n2C)C1 (stereo not drawn) [Example 4, N-(1-acryloylazetidin-3-yl)-2-(1-((5-(tert-butyl)-6-chloro-1H-indazol-3-yl)amino)ethyl)-1-methyl-1H-imidazole-5-carboxamide] was run?
Answer: 1560 nM

Question: With [2H]C([2H])(Nc1n[nH]c2cc(Cl)c(C(C)(C)C)cc12)c1nc(C)c(C(=O)NC2CN(C(=O)C=C)C2)n1C [Example 5, N-(1-acryloylazetidin-3-yl)-2-(((5-(tert-butyl)-6-chloro-1H-indazol-3-yl)amino)methyl-d2)-1,4-dimethyl-1H-imidazole-5-carboxamide] as the compound, how does the IC50 read?
Answer: 10 nM

Question: For C=CC(=O)N1CC(NC(=O)c2c(Cl)c(CNc3n[nH]c4cc(Cl)c(C(C)(C)C)cc34)nn2C)C1 [Example 6, N-(1-acryloylazetidin-3-yl)-3-(((5-(tert-butyl)-6-chloro-1H-indazol-3-yl)amino)methyl)-4-chloro-1-methyl-1H-pyrazole-5-carboxamide], which IC50 is on record?
Answer: 791 nM

Question: Which IC50 does the source give for C=CC(=O)N1CC(NC(=O)c2csc(CNc3n[nH]c4cc(Cl)c(C(C)(C)C)cc34)n2)C1 [Example 7, N-(1-acryloylazetidin-3-yl)-2-(((5-(tert-butyl)-6-chloro-1H-indazol-3-yl)amino)methyl)thiazole-4-carboxamide] here?
Answer: 4260 nM

Question: For C=CC(=O)N1CC(NC(=O)c2cnc(CNc3n[nH]c4cc(Cl)c(C(C)(C)C)cc34)s2)C1 [Example 8, N-(1-acryloylazetidin-3-yl)-2-(((5-(tert-butyl)-6-chloro-1H-indazol-3-yl)amino)methyl)thiazole-5-carboxamide], which IC50 is on record?
Answer: 783 nM

Question: Which IC50 does the source give for C=CC(=O)N1CC(NC(=O)c2cc(CNc3n[nH]c4cc(Cl)c(C(C)(C)C)cc34)nn2C)C1 [Example 9, N-(1-acryloylazetidin-3-yl)-3-(((5-(tert-butyl)-6-chloro-1H-indazol-3-yl)amino)methyl)-1-methyl-1H-pyrazole-5-carboxamide] here?
Answer: 3140 nM

Question: C=CC(=O)N1CC(NC(=O)c2c(C)c(CNc3n[nH]c4cc(Cl)c(C(C)(C)C)cc34)nn2C)C1 [Example 10, N-(1-acryloylazetidin-3-yl)-3-(((5-(tert-butyl)-6-chloro-1H-indazol-3-yl)amino)methyl)-1,4-dimethyl-1H-pyrazole-5-carboxamide] was tested. Which IC50 did it give?
Answer: 129 nM

Question: For C=CC(=O)N1CC(NC(=O)c2oc(CNc3n[nH]c4cc(Cl)c(C(C)(C)C)cc34)nc2C)C1 [Example 11, N-(1-acryloylazetidin-3-yl)-2-(((5-(tert-butyl)-6-chloro-1H-indazol-3-yl)amino)methyl)-4-methyloxazole-5-carboxamide], which IC50 is on record?
Answer: 1060 nM
